Reference: patent US9309285B2, “Macrocyclic broad spectrum antibiotics” (priority 2012, dated 2016)
pIC50: −log10 of the molar value. Read-outs that look alike come from different tables or passages of the source.

Tests used:
[1] = target: T1, E. coli SPase (Escherichia coli, UniProt P00803); assay: SPase enzyme inhibition assay, fluorogenic peptide substrate, E. coli; format: biochemical; details: for IC50: 3 nM E. coli SPase, 20 μM substrate, 10 minutes pre-incubation, room temperature, read-out: IC 50 (nM) E. coli
T1 construct: Full length His-tagged E. coli and S. aureus SPase proteins were expressed in E. coli BL21; His tag; made in house; host or cells: E. coli BL21 (DE3)
Method: (§1) Briefly, for expression of E. coli SPase, saturated overnight cultures grown in 20 ml of Luria-Bertani medium supplemented with ampicillin were subcultures into 1.5 L of Luria-Bertani, and shaken at 37° C. until an optical density at 600 nm of 0.4-0.5 was achieved. […] S. aureus SPase was expressed and purified similarly, with the following exceptions. […] Resin bound protein was washed in a similar buffer containing 1% Elugent in place of Triton X-100 prior to protein elution in wash buffer supplemented with 300 mM imidazole. […] All protein concentrations were determined by BCA assay.
(§2) Enzyme master solution was prepared by diluting Escherichia coli or Staphylococcus aureus SPase protein into reaction buffer to a final concentration of 3 nM or 10 nM respectively. Reaction buffer consisted of 20 mM NaKHPO4 pH 7.4, 100 mM NaCl, and 1% v/v Elugent™ detergent. Reactions were initiated by the addition of substrate to a final concentration of 20 μM. Reaction progress was monitored by measuring the increase in fluorescence signal (excitation at 314 nm, emission at 416 nm) using a SpectraMax M2 fluorescence microplate reader. […] Three-folder serial dilutions of test compounds, starting at 10 μM, were prepared in enzyme mix solution and incubated at room temperature for 10 minutes. Following this incubation, fluorogenic substrate was added to a final concentration of 20 μM and the increase in fluorescence, corresponding to substrate cleavage, was monitored continuously at room temperature for 1 hour. Initial reaction rates were calculated based on the rate of increase in fluorescence during the reaction. Reaction rates were plotted as a function of compound concentration, and IC50 values were determined nonlinear regression analysis (SoftMaxPro 5.4, Molecular Devices™) of the sigmoidal dose-response curve.

[2] = test system: Methicillin Resistant Staphylococcus aureus strain USA 300 (NRS384); assay: MIC by broth micro-dilution (CLSI), S. aureus; format: cell-based; details: MRSA USA 300 (NRS384), cation adjusted Mueller Hinton Broth + 0.002% Tween-80, 35° C., 22 hours; for MIC: Staphylococcus aureus, MRSA / NRS 384 / USA300, read-out: MIC (μg/mL) S. aureus
Method: (§3) In vitro antimicrobial activity of each compound was determined by measuring minimal inhibitor concentrations (MICs) using the broth micro-dilution technique as approved by the Clinical and Laboratory Standards Institute (CLSI) (Methods for Dilution Antimicrobial Susceptibility Tests for Bacteria that Grow Aerobically; Approved Standard—Eighth Edition. CLSI document M07-A8. Wayne, Pa.: Clinical and Laboratroy Standards; 2009). Antibacterial activity was measure against two strains of bacteria: a Methicillin Resistant Staphylococcus aureus strain USA 300 (NRS384) and a strain of Escherichia coli MC4100 harboring the IMP4213, which results in increased outer-membrane permeability (B Martin and Silhavy T. Imp/OstA is required for cell envelope biogenesis in Escherichia coli. (2002) Molecular Microbiology, 45(5), 1289-1302). Cells were inoculated onto plates of Trypyticase Soy Agar or Luria Agar respectively and grown at 35° C. for 20 hours. Inocula suspensions were prepared by scraping cells into 1 ml of testing media (cation adjusted Mueller Hinton Broth supplemented with 0.002% v/v Tween-80) and diluting to a final OD600 nm of 0.01.
Test compounds were prepared in DMSO at a concentration of 10 mg/ml. These compound stocks were diluted into testing media at a concentration of 64 μg/ml and serial 2-fold dilutions were made in the same media, in 96-well U bottom microtiter dishes, for a total of 10 compound concentrations. Inocula suspensions were added to the 2-fold serial dilutions of test compounds to a final density of OD OD600 nm of 0.0005 and incubated at 35° C. for 22 hours.

[3] = target: T2, S. aureus SPase (Staphylococcus aureus, UniProt P0A070); assay: SPase enzyme inhibition assay, fluorogenic peptide substrate, S. aureus; format: biochemical
T2 construct: Full length His-tagged E. coli and S. aureus SPase proteins were expressed in E. coli BL21; His tag; made in house; host or cells: E. coli BL21 (DE3)
T2 sequence (P0A070 1-191): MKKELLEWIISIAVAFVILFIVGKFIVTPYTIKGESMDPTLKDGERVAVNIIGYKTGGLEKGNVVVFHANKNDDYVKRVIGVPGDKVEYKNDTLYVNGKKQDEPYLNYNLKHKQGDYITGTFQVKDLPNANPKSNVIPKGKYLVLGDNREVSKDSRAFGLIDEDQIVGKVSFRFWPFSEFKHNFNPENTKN
Method: as §1, §2

[4] = test system: Escherichia coli MC4100 harboring the IMP4213; assay: MIC by broth micro-dilution (CLSI), E. coli; format: cell-based; details: E. coli MC4100 IMP4213 (increased outer-membrane permeability); cation adjusted Mueller Hinton Broth + 0.002% Tween-80; 35° C., 22 hours
Method: as §3
Test compounds were prepared in DMSO at a concentration of 10 mg/ml. […]

[5] = read-out: IC 50 (nM) S. aureus; 10 nM S. aureus SPase, 20 μM substrate, 10 minutes pre-incubation, room temperature

T1 sequence (P00803 whole entry): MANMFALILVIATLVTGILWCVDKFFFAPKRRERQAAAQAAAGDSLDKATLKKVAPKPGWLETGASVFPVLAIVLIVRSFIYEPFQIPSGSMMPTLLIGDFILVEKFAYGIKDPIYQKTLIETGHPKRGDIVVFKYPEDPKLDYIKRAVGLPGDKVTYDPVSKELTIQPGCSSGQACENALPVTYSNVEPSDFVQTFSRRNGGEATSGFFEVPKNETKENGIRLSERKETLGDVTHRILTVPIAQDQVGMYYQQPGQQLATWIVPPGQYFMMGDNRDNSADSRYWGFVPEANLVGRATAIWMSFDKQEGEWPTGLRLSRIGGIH

SMILES | IC50 [1] | MIC [2] | pIC50 [3] | IC50 [3, 5] | pIC50 [1] | MIC (μg/mL) E. coli [4] | MIC (μg/mL) S. aureus [2] | IC50 ([3]; 10 nM S. aureus SPase, 20 μM substrate, 10 minutes pre-incubation, room temperature; read-out: IC 50 (nM) S. aureus)
CCCCc1ccc(-c2ccc(C(=O)NCC(C)C(=O)N[C@@H](CCCCN)C(=O)N(C)[C@@H]3C(=O)N[C@@H](C)C(=O)N[C@H](C(=O)O)Cc4ccc(O)c(c4)-c4cc3ccc4O)cc2)cc1 (mixture of isomers) [Compound 104] | 3.7 nM | 4 µg/mL | 7.92 |  |  |  |  | 
CCCCc1ccc(-c2ccc(C(=O)NC(C)CC(=O)N[C@@H](CCCCN)C(=O)N(C)[C@@H]3C(=O)N[C@@H](C)C(=O)N[C@H](C(=O)O)Cc4ccc(O)c(c4)-c4cc3ccc4O)cc2)cc1 (stereo partly shown) [Compound 106] | 2.9 nM | 2 µg/mL | 8.06 |  |  |  |  | 
CCCCCCCC(=O)N[C@@H](CCCCN)C(=O)N(C)[C@@H]1C(=O)N[C@@H](C)C(=O)N[C@H](C(=O)N[C@@H](C)B2O[C@@H]3C[C@@H]4C[C@@H](C4(C)C)[C@]3(C)O2)Cc2ccc(O)c(c2)-c2cc1ccc2O [Compound 125] | 26 nM | 23 µg/mL | 7.19 |  |  |  |  | 
CCCCc1ccc(-c2ccc(CC(=O)NCCC(=O)N[C@@H](CCCCN)C(=O)N(C)[C@@H]3C(=O)N[C@@H](C)C(=O)N[C@H](C(=O)O)Cc4ccc(O)c(c4)-c4cc3ccc4O)cc2)cc1 [Compound 101] | 5.4 nM | 6.3 µg/mL | 7.52 |  |  |  |  | 
CCCCc1ccc(-c2ccc(C(=O)N[C@@H](CCCCN)C(=O)N[C@H]3COCCCCC[C@@H](C(=O)N[C@@H](C)B(O)O)NC(=O)[C@H](C)NC3=O)cc2)cc1 [Compound 205] | 30 nM | 2.8 µg/mL |  | 280 nM |  |  |  | 
CCCCc1ccc(-c2ccc(C(=O)NC[C@@H](C)C(=O)N[C@@H](CCCCN)C(=O)N(C)[C@@H]3C(=O)N[C@@H](C)C(=O)N[C@H](C(=O)O)Cc4ccc(O)c(c4)-c4cc3ccc4O)cc2)cc1 [Compound 103] | 1.3 nM | 2.1 µg/mL | 8.10 |  |  |  |  | 
CCCCc1ccc(-c2ccc(C(=O)N[C@@H](C)CC(=O)N[C@@H](CCCCN)C(=O)N(C)[C@@H]3C(=O)N[C@@H](C)C(=O)N[C@H](C(=O)O)Cc4ccc(O)c(c4)-c4cc3ccc4O)cc2)cc1 [Compound 107] | 0.6 nM | 11 µg/mL | 8.59 |  |  |  |  | 
CCCCc1ccc(-c2ccc(C(=O)NCC(=O)N[C@@H](CCCCN)C(=O)N(C)[C@@H]3C(=O)N[C@@H](C)C(=O)N[C@H](C(=O)O)Cc4ccc(O)c(c4)-c4cc3ccc4O)cc2)cc1 [Compound 108] | 2.4 nM | 8 µg/mL | 6.96 |  |  |  |  | 
CCCCc1ccc(-c2ccc(C(=O)NCC(C)C(=O)N[C@@H](CCN)C(=O)N(C)[C@@H]3C(=O)N[C@@H](C)C(=O)N[C@H](C(=O)O)Cc4ccc(O)c(c4)-c4cc3ccc4O)cc2)cc1 (single isomer, unassigned) [Compound 114] | 730 nM | 64 µg/mL | 5.66 |  |  |  |  | 
CCCCCCCC(=O)N[C@@H](CCCCN)C(=O)N(C)[C@@H]1C(=O)N[C@@H](C)C(=O)N[C@H](C(=O)NCB2O[C@@H]3C[C@@H]4C[C@@H](C4(C)C)[C@]3(C)O2)Cc2ccc(O)c(c2)-c2cc1ccc2O [Compound 126] |  | 32 µg/mL | 6.89 |  | 7.89 |  |  | 
CCCCCCCCCCCCCC(=O)NCCC(=O)N[C@@H](CCCCN)C(=O)N(C)[C@@H]1C(=O)N[C@@H](C)C(=O)N[C@H](C(=O)O)Cc2ccc(O)c(c2)-c2cc1ccc2O [Compound 105] | 1.3 nM | 0.63 µg/mL | 7.80 |  |  |  |  | 
CCCCc1ccc(-c2ccc(C(=O)NCC(C)C(=O)N[C@@H](CCN)C(=O)N(C)[C@@H]3C(=O)N[C@@H](C)C(=O)N[C@H](C(=O)O)Cc4ccc(O)c(c4)-c4cc3ccc4O)cc2)cc1 (single isomer, unassigned) [Compound 115] | 630 nM |  |  |  |  | >64 µg/mL | 64 µg/mL | 1900 nM
C[C@@H]1NC(=O)[C@@H](N(C)C(=O)[C@H](CCCCN)NC(=O)c2ccc(-c3ccc(Cl)cc3)cc2)c2ccc(O)c(c2)-c2cc(ccc2O)C[C@@H](C(=O)N[C@@H](C)C(=O)N2CCC[C@H]2C(N)=O)NC1=O [Compound 132] |  | 6.1 µg/mL | 8.23 |  | 7.59 |  |  | 
CCCCc1ccc(-c2ccc(C(=O)N[C@@H](CCCCN)C(=O)NCCC(=O)N(C)[C@@H]3C(=O)N[C@@H](C)C(=O)N[C@H](C(=O)O)Cc4ccc(O)c(c4)-c4cc3ccc4O)cc2)cc1 [Compound 117] | 760 nM | > 64 µg/mL | 5.41 |  |  |  |  | 
CCCCc1ccc(-c2ccc(C(=O)NCCC(=O)N(C)[C@@H]3C(=O)N[C@@H](C)C(=O)N[C@H](C(=O)O)Cc4ccc(O)c(c4)-c4cc3ccc4O)cc2)cc1 [Compound 112] | 850 nM | > 64 µg/mL | 5.14 |  |  |  |  | 
CCCCc1ccc(-c2ccc(C(=O)N[C@@H](CCCCN)C(=O)N(C)[C@@H]3C(=O)N[C@@H](C)C(=O)N[C@H](C(=O)N[C@@H](C)B4O[C@@H]5C[C@@H]6C[C@@H](C6(C)C)[C@]5(C)O4)CCCCc4cc3ccc4OC)cc2)cc1 [Compound 209] |  | 4 µg/mL | 5.43 |  | 7.08 |  |  | 
CCCCc1ccc(-c2ccc(C(=O)N[C@@H](CCCCN)C(=O)N[C@H]3COCCCCC[C@@H](C(=O)N[C@@H](C)B4OC5C[C@@H]6C[C@@H](C6(C)C)[C@]5(C)O4)NC(=O)[C@H](C)NC3=O)cc2)cc1 (stereo partly shown) [Compound 204] | 25 nM | 1.4 µg/mL |  | 250 nM |  |  |  | 
CCCCc1ccc(-c2ccc(C(=O)N[C@H](C)C(=O)N[C@@H](CCCCN)C(=O)N(C)[C@@H]3C(=O)N[C@@H](C)C(=O)N[C@H](C(=O)O)Cc4ccc(O)c(c4)-c4cc3ccc4O)cc2)cc1 [Compound 102] | 11 nM | 10 µg/mL | 6.55 |  |  |  |  | 
CCCCc1ccc(-c2ccc(C(=O)NC[C@@H](N)C(=O)N[C@@H](CCCCN)C(=O)N(C)[C@@H]3C(=O)N[C@@H](C)C(=O)N[C@H](C(=O)O)Cc4ccc(O)c(c4)-c4cc3ccc4O)cc2)cc1 [Compound 109] | 11 nM | > 64 µg/mL | 7.82 |  |  |  |  | 
CCCCc1ccc(-c2ccc(C(=O)NC(CCCCN)C(=O)N[C@H]3COCCCCOC[C@@H](C(=O)N[C@@H](C)B4O[C@@H]5C[C@@H]6C[C@@H](C6(C)C)[C@]5(C)O4)NC(=O)[C@H](C)NC3=O)cc2)cc1 (mixture of isomers) [Compound 206] | 81 nM | 4 µg/mL | 6.22 |  |  |  |  | 
CCCCCCCC(=O)NCCC(=O)N[C@@H](CCCCN)C(=O)N(C)[C@@H]1C(=O)N[C@@H](C)C(=O)N[C@H](C(=O)N[C@@H](C)B2O[C@@H]3C[C@@H]4C[C@@H](C4(C)C)[C@]3(C)O2)Cc2ccc(O)c(c2)-c2cc1ccc2O [Compound 123] | 20 nM | 64 µg/mL | 7.74 |  |  |  |  | 
